# Data taken from US6737383B1, “Herbicidal oxadiazolidines” (priority 1999, dated 2004).
# Columns and labels:
# crabgrass = assay: Test B pre/postemergence crabgrass; type: in vivo, Digitaria sanguinalis
# Summary of the method: (§1)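 Response is a visual 0-to-10 score relative to untreated plants, where 0 means no effect and 10 means complete control, taken twelve to sixteen days after application. Treatments went onto soil at planting and onto foliage of 1- to 4-leaf plants, using a surfactant-containing non-phytotoxic solvent.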
# blackgrass = assay: Test B pre/postemergence blackgrass; type: in vivo, Alopecurus myosuroides
# Summary of the method: as §1
# velvetleaf = assay: Test B pre/postemergence velvetleaf; type: in vivo, Abutilon theophrasti; conditions: for Plant response rating, Velvetleaf: Rate 250 g/ha
# Summary of the method: as §1
# bedstraw = assay: Test B pre/postemergence bedstraw; type: in vivo, Galium aparine
# Summary of the method: as §1
# purple nutsedge = assay: Test B pre/postemergence purple nutsedge; type: in vivo, Cyperus rotundus
# Summary of the method: as §1
# wheat = assay: Test B pre/postemergence wheat; type: in vivo, Triticum aestivum; conditions: for Plant response rating, Wheat: Rate 250 g/ha
# Summary of the method: as §1
# morningglory = assay: Test B pre/postemergence morningglory; type: in vivo, Ipomoea hederacea
# Summary of the method: as §1
# pigweed = assay: Test B pre/postemergence pigweed; type: in vivo, Amaranthus retroflexus
# Summary of the method: as §1
# wild oat = assay: Test B pre/postemergence wild oat; type: in vivo, Avena fatua; conditions: for Plant response rating, Wild oats: Rate 250 g/ha
# Summary of the method: as §1
# soybean = assay: Test B pre/postemergence soybean; type: in vivo, Glycine max
# Summary of the method: as §1
# rape = assay: Test B pre/postemergence rape; type: in vivo, Brassica napus
# Summary of the method: as §1
# corn = assay: Test B pre/postemergence corn; type: in vivo, Zea mays
# Summary of the method: as §1
# cocklebur = assay: Test B pre/postemergence cocklebur; type: in vivo, Xanthium strumarium
# Summary of the method: as §1
# surinam grass = assay: Test B pre/postemergence surinam grass; type: in vivo, Brachiaria decumbens
# Summary of the method: as §1
# giant foxtail = assay: Test B pre/postemergence giant foxtail; type: in vivo, Setaria faberii
# Summary of the method: as §1
# [1] = Postemergence, Rate 125 g/ha, scale of 0 to 10 where 0 is no effect and 10 is complete control
# [2] = Postemergence, Rate 250 g/ha, scale 0 to 10, 0 no effect, 10 complete control
# [3] = Preemergence, Rate 62 g/ha, scale 0 to 10 (0 no effect, 10 complete control)
# [4] = Preemergence, Rate 125 g/ha, scale 0 to 10 (0 no effect, 10 complete control)
# [5] = Preemergence, Rate 250 g/ha, scale of 0 to 10 where 0 is no effect and 10 is complete control
# [6] = Preemergence, Rate 500 g/ha, scale 0 to 10 (0 no effect, 10 complete control)
# [7] = Rate 62 g/ha, Postemergence, scale of 0 to 10 where 0 is no effect and 10 is complete control
# [8] = Rate 500 g/ha, Postemergence, scale 0 to 10, 0 no effect, 10 complete control
# [9] = Preemergence, Rate 125 g/ha, 0 is no effect, 10 is complete control
# [10] = Preemergence, scale of 0 to 10 where 0 is no effect and 10 is complete control
# [11] = Postemergence, scale 0 to 10, 0 is no effect, 10 is complete control
# [12] = Rate 250 g/ha, Postemergence, scale 0 to 10, 0 is no effect, 10 is complete control
smiles,measurement,setting,value
Cc1nn(C)c(Cl)c1-n1c(=O)on(C(=O)N(c2ccccc2)C(C)C)c1=O [Compound 121],Crabgrass plant response rating,crabgrass; [1],6
same,Crabgrass plant response rating,crabgrass; [2],9
same,Crabgrass plant response rating,crabgrass; [3],2
same,"Plant response rating, Crabgrass",crabgrass; [4],7
same,"Plant response rating, Crabgrass",crabgrass; [5],8
same,Crabgrass plant response rating,crabgrass; [6],9
same,Crabgrass plant response rating,crabgrass; [7],4
same,Crabgrass plant response rating,crabgrass; [8],9
same,Blackgrass plant response rating,blackgrass; [1],0
same,Blackgrass plant response rating,blackgrass; [2],2
same,Blackgrass plant response rating,blackgrass; [3],0
same,"Plant response rating, Blackgrass",blackgrass; [4],4
same,"Plant response rating, Blackgrass",blackgrass; [5],7
same,Blackgrass plant response rating,blackgrass; [6],9
same,Blackgrass plant response rating,blackgrass; [7],0
same,Blackgrass plant response rating,blackgrass; [8],6
same,Velvetleaf plant response rating,velvetleaf; [1],0
same,Velvetleaf plant response rating,velvetleaf; [3],0
same,Velvetleaf plant response rating (0 to 10 scale),velvetleaf; [9],0
same,"Plant response rating, Velvetleaf",velvetleaf; [10],0
same,Velvetleaf plant response rating,velvetleaf; [6],0
same,Velvetleaf plant response rating,velvetleaf; [7],0
same,"Plant response rating, Velvetleaf",velvetleaf; [11],4
same,Velvetleaf plant response rating,velvetleaf; [8],4
same,Bedstraw plant response rating,bedstraw; [3],0
same,"Plant response rating, Bedstraw",bedstraw; [4],0
same,"Plant response rating, Bedstraw",bedstraw; [5],2
same,Bedstraw plant response rating,bedstraw; [6],5
same,Bedstraw plant response rating,bedstraw; [8],6
same,Nutsedge plant response rating,purple nutsedge; [1],0
same,Nutsedge plant response rating,purple nutsedge; [2],0
same,Nutsedge plant response rating,purple nutsedge; [3],0
same,"Plant response rating, Nutsedge",purple nutsedge; [4],0
same,"Plant response rating, Nutsedge",purple nutsedge; [5],0
same,Nutsedge plant response rating,purple nutsedge; [6],0
same,Nutsedge plant response rating,purple nutsedge; [7],0
same,Nutsedge plant response rating,purple nutsedge; [8],0
same,Wheat plant response rating,wheat; [1],0
same,Wheat plant response rating,wheat; [3],0
same,Wheat plant response rating (0 to 10 scale),wheat; [9],0
same,"Plant response rating, Wheat",wheat; [10],0
same,Wheat plant response rating,wheat; [6],3
same,Wheat plant response rating,wheat; [7],0
same,"Plant response rating, Wheat",wheat; [11],0
same,Wheat plant response rating,wheat; [8],0
same,Morningglory plant response rating,morningglory; [1],6
same,Morningglory plant response rating,morningglory; [2],6
same,Morningglory plant response rating,morningglory; [3],0
same,"Plant response rating, Morningglory",morningglory; [4],0
same,"Plant response rating, Morningglory",morningglory; [5],0
same,Morningglory plant response rating,morningglory; [6],0
same,Morningglory plant response rating,morningglory; [7],5
same,Morningglory plant response rating,morningglory; [8],9
same,Redroot pigweed plant response rating,pigweed; [1],2
same,Redroot pigweed plant response rating,pigweed; [3],4
same,"Plant response rating, Redroot pigweed",pigweed; [4],7
same,"Plant response rating, Redroot pigweed",pigweed; [5],8
same,Redroot pigweed plant response rating,pigweed; [6],8
same,Redroot pigweed plant response rating,pigweed; [7],2
same,"Plant response rating, Redroot pigweed",pigweed; [12],3
same,Redroot pigweed plant response rating,pigweed; [8],5
same,Wild oats plant response rating,wild oat; [1],0
same,Wild oats plant response rating,wild oat; [3],0
same,Wild oats plant response rating (0 to 10 scale),wild oat; [9],0
same,"Plant response rating, Wild oats",wild oat; [10],5
same,Wild oats plant response rating,wild oat; [6],6
same,Wild oats plant response rating,wild oat; [7],0
same,"Plant response rating, Wild oats",wild oat; [11],0
same,Wild oats plant response rating,wild oat; [8],0
same,Soybean plant response rating,soybean; [1],5
same,Soybean plant response rating,soybean; [3],0
same,"Plant response rating, Soybean",soybean; [4],0
same,"Plant response rating, Soybean",soybean; [5],0
same,Soybean plant response rating,soybean; [6],0
same,Soybean plant response rating,soybean; [7],5
same,"Plant response rating, Soybean",soybean; [12],6
same,Soybean plant response rating,soybean; [8],6
same,Rape plant response rating,rape; [1],0
same,Rape plant response rating,rape; [2],2
same,Rape plant response rating,rape; [3],0
same,"Plant response rating, Rape",rape; [4],0
same,"Plant response rating, Rape",rape; [5],0
same,Rape plant response rating,rape; [6],0
same,Rape plant response rating,rape; [7],0
same,Rape plant response rating,rape; [8],3
same,Corn plant response rating,corn; [1],0
same,Corn plant response rating,corn; [2],0
same,Corn plant response rating,corn; [3],0
same,"Plant response rating, Corn",corn; [4],0
same,"Plant response rating, Corn",corn; [5],0
same,Corn plant response rating,corn; [6],0
same,Corn plant response rating,corn; [7],0
same,Corn plant response rating,corn; [8],0
same,Cocklebur plant response rating,cocklebur; [1],2
same,Cocklebur plant response rating,cocklebur; [2],2
same,Cocklebur plant response rating,cocklebur; [3],0
same,"Plant response rating, Cocklebur",cocklebur; [4],0
same,Cocklebur plant response rating,cocklebur; [6],0
same,Cocklebur plant response rating,cocklebur; [7],0
same,Cocklebur plant response rating,cocklebur; [8],5
same,B. signalgrass plant response rating,"surinam grass; Postemergence, Rate 62 g/ha, scale 0 to 10, 0 is no effect, 10 is complete control",0
same,B. signalgrass plant response rating,surinam grass; [1],0
same,B. signalgrass plant response rating,surinam grass; [2],3
same,B. signalgrass plant response rating,surinam grass; [3],0
same,"Plant response rating, B. signalgrass",surinam grass; [4],4
same,"Plant response rating, B. signalgrass",surinam grass; [5],8
same,B. signalgrass plant response rating,surinam grass; [6],9
same,B. signalgrass plant response rating,"surinam grass; Rate 500 g/ha, Postemergence, scale of 0 to 10 where 0 is no effect and 10 is complete control",3
same,Giant foxtail plant response rating,giant foxtail; [1],1
same,Giant foxtail plant response rating,giant foxtail; [2],7
same,Giant foxtail plant response rating,giant foxtail; [3],8
same,"Plant response rating, Giant foxtail",giant foxtail; [4],8
same,"Plant response rating, Giant foxtail",giant foxtail; [5],8
same,Giant foxtail plant response rating,giant foxtail; [6],10
same,Giant foxtail plant response rating,giant foxtail; [7],1
same,Giant foxtail plant response rating,giant foxtail; [8],8
